Test results published in ChEMBL document CHEMBL1201862, “PubChem BioAssay data set” (2004).
Activity calls are given as the source filed them. *1 amine or outer side, *2 acyl side, *3 side chain or, on linkers, in order; H or OH if unused. Where a SMILES comes first, the peptide text is derived from it. Bridges are numbered along the chain shown (N, C = ends). [ ]: non-standard residue; d: D form. The star is where a group is joined. X56 = CC(C)C(C)C(C(=O)[*:2])N(C)[*:1]; Picolinoyl(3-OH) = O=C(c1ncccc1O)*; NMePhg = CN[CH](C(=O)O)c1ccccc1; Hyp = O=C(O)[CH]1C[CH](O)CN1; Sar = CNCC(=O)O

Tests used:
cells [1] = format: functional, cell-based
cells [2] = format: functional, cell-based; remark: listed apart in the source
[3] = molecular target: FAD-linked sulfhydryl oxidase ALR (Homo sapiens, UniProt P55789); experiment: inhibitors of human ALR sulfhydryl oxidase, dose response, biochemical, H2O2 detection, luminescence, cherry-pick (AID 493248)
[4] = molecular target: T1, Ubiquitin-conjugating enzyme E2 N (Homo sapiens, UniProt P61088); format: functional;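 further: Dose-response confirmation in a TR-FRET assay detecting UBC13-driven polyubiquitin chain formation, inhibition measured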
T1 sequence (P61088 whole entry): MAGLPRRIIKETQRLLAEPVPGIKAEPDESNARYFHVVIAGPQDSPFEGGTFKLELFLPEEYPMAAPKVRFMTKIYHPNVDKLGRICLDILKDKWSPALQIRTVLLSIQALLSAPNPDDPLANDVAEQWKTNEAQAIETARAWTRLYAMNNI

[5] = molecular target: Luciferin 4-monooxygenase (Photinus pyralis, UniProt P08659); experiment: firefly luciferase enzyme inhibitors, dose response, biochemical, luminescence (AID 1891)
[6] = Luminescence Cell-Based Dose Confirmation HTS to Identify Inhibitors of Platelet Dense Granule Release. [Related pubchem assays: 1663 (Primary HTS), 1678 (Summary of Project)]; format: functional
[7] = molecular target: T2, Polyadenylate-binding protein 1 (Homo sapiens, UniProt P11940); experiment: PABP1 MLLE–PAM2 interaction inhibitors, dose response, miRNA deadenylation inhibitor project, biochemical, fluorescence polarization, Cy5-PAM2 peptide, secondary (AID 602260); format: functional; settings: read-out: IC50_Mean
[8] = molecular target: T2, Polyadenylate-binding protein 1; experiment: PABP1 MLLE–PAM2 binding inhibitor potency, dose response, biochemical, fluorescence polarization, FITC-PAM2 peptide (AID 602259); format: functional; settings: read-out: IC50_Mean
H9c2 = experiment: cells; format: functional, cell-based; settings: Rattus norvegicus, H9c2, Myocardium;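 further: confirmatory concentration-response retest of ultra-high-throughput screening hits for modulation of myocardial damage; cell death induced by hydrogen peroxide oxidative stress; compound pretreatment for 60 min then peroxide exposure for 2 h; potency is for protecting the cells against peroxide damage rather than for killing them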
[9] = molecular target: T3, Corticotropin-releasing factor receptor 2/Corticotropin-releasing factor-binding protein (Homo sapiens, UniProt P24387+Q13324); experiment: activators of CRF receptor 2 with binding protein – uHTS hits, confirmation (AID 602473); format: functional; settings: read-out: EC50_Mean
T3 sequence (Q13324 whole entry): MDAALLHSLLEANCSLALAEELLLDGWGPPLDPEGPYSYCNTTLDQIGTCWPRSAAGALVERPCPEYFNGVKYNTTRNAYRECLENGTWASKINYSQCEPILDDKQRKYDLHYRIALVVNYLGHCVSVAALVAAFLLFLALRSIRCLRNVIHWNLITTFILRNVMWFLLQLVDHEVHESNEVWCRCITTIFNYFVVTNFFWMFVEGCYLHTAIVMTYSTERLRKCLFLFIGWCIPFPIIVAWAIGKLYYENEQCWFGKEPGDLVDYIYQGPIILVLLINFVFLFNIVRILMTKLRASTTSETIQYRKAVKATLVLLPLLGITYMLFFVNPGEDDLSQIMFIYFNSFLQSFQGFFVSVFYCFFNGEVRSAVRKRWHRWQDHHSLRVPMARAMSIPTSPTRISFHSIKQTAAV
T3 sequence (P24387 whole entry): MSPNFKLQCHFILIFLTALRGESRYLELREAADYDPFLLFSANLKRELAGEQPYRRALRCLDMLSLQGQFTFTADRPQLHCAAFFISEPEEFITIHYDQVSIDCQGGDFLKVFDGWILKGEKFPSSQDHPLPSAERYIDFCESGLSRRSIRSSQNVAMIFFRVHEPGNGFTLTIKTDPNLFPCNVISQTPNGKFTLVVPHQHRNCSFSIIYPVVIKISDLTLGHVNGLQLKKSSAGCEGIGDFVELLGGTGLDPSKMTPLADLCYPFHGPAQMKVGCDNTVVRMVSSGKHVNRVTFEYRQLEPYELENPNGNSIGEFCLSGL

P388/ADR = experiment: cells; format: functional; settings: Mus musculus
SN12K1 = experiment: cells; format: functional; settings: Homo sapiens
P388 = experiment: cells; format: functional; settings: Mus musculus
[10] = Luminescence Cell-Based Dose Retest to Confirm Inhibitors of Cancer Stem Cells. [Related pubchem assays (depositor defined):AID2717, AID2721]; format: functional; settings: Homo sapiens
Nonstructural protein 1 = Nonstructural protein 1 (Influenza A virus, UniProt Q194T2); format: functional, Influenza A virus (A/California/07/2009(H1N1))
[11] = NIH-3T3 fibroblast cytotoxicity, dose response, cytotoxicity control, cell-based, fluorescence, Alamar Blue, secondary assay (AID 2327); format: functional;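 further: NIH-3T3 mouse fibroblasts cultured with fluconazole at 8 µg/mL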
[12] = C. albicans growth with fluconazole, confirmation, fluorescence, retest (AID 2467); format: functional, cell-based
[13] = growth suppression of PTEN-null colon cells, dose response, cell-based, HCT116 PTEN knockout (AID 1047); format: functional;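 further: HCT116 colon tumor cells with PTEN knocked out; cells exposed to compound for 60 hours before readout; potency for loss of cell viability measured by luminescence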
Cytochrome P450 2D6 = Cytochrome P450 2D6 (Homo sapiens, UniProt P10635);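 further: CYP2D6 member of a cytochrome P450 panel assay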
[14] = HEp-2 cell cytotoxicity, dose response, cytotoxicity control for RSV inhibitor project, HTS (AID 2410); format: functional; settings: human respiratory syncytial virus

Chain of FAD-linked sulfhydryl oxidase ALR (P55789 whole entry): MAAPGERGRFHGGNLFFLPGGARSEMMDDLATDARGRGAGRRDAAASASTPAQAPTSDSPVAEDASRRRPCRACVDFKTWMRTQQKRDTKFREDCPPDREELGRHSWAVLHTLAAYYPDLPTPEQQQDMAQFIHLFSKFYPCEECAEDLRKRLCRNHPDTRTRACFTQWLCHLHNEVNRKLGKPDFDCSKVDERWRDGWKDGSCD
T2 sequence (P11940 whole entry): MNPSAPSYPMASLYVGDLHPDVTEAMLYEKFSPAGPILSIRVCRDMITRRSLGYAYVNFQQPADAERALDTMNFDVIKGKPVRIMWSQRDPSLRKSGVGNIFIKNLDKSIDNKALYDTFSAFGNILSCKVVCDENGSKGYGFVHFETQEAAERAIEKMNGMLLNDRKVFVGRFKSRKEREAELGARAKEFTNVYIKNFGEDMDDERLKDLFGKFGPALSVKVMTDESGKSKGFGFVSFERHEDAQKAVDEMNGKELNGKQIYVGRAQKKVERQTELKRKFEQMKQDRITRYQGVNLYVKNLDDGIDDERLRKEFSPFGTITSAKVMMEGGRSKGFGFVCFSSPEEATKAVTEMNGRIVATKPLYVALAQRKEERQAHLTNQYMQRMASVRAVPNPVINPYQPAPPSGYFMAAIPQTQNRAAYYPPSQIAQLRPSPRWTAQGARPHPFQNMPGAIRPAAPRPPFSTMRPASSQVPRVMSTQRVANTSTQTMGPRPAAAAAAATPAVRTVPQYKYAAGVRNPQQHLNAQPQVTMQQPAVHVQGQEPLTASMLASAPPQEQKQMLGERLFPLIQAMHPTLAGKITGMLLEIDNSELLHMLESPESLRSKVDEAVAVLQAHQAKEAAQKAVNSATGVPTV
Chain of Luciferin 4-monooxygenase (P08659 whole entry): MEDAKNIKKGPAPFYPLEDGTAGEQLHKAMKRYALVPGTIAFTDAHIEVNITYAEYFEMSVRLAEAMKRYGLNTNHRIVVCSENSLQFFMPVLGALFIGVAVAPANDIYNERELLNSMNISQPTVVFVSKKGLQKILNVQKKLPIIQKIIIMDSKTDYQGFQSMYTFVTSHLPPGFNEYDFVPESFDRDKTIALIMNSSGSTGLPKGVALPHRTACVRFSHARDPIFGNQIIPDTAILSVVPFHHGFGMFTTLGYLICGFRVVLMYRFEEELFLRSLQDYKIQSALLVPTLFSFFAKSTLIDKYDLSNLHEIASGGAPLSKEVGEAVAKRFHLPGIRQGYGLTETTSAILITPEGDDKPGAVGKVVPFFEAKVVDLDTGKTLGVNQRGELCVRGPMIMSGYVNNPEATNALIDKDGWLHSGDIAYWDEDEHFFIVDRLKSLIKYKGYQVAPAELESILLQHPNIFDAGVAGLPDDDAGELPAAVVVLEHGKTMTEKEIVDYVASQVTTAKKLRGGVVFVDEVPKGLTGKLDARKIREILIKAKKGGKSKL
Chain of Nonstructural protein 1 (Q194T2 whole entry): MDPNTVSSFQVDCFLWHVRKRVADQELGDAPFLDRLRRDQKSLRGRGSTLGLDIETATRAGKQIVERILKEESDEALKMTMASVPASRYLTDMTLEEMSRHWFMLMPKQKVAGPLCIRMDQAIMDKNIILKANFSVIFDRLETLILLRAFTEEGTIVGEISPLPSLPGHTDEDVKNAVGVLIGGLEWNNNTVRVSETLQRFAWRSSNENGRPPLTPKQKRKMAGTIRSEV
Chain of Cytochrome P450 2D6 (P10635 whole entry): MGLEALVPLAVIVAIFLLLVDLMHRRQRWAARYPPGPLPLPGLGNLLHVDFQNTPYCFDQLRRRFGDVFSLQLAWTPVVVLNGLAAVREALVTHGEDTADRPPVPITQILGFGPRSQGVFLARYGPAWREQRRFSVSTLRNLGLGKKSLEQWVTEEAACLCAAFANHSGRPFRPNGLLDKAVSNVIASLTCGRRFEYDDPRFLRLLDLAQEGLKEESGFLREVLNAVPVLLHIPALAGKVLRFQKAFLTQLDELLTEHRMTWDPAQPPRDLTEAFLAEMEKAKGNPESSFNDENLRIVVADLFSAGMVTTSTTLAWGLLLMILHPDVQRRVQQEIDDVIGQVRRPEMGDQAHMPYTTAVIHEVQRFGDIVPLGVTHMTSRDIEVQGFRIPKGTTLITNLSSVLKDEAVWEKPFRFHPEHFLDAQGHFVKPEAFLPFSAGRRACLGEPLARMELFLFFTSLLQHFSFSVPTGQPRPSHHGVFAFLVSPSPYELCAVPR

What does the source list for `O=C(CSc1nc[nH]n1)NCCc1ccc(Cl)cc1Cl`?
EC50 (cells [1]): > 350 µM (not active); EC50 (cells [2]): 149 µM (active)

With `CN(C)c1ccc(/C=N/NC(=O)c2ccn(C)n2)cc1` as the compound, how does the AC50 [3] read?
Its AC50 is 25.6 µM (active).

Which IC50 [4] does the source give for `COc1cc(C(=O)Nc2nc3ccc(S(C)(=O)=O)cc3s2)cc(OC)c1C` here?
The IC50 was > 20 µM (inactive).

For `OC(CNCc1cccc(Br)c1)c1ccccc1` (configuration not stated), which EC50 [5] is on record?
The EC50 was > 112 µM (not active).

And the EC50 [6]?
The EC50 was 20.7 µM (active).

For `CCC(C)N(C(=O)CSc1ccc(NC(C)=O)cc1)C1CCS(=O)(=O)C1` (configuration not stated), which IC50 [7] is on record?
The IC50 was > 66 µM (inactive).

What about the IC50 [8] of the same compound?
The IC50 was > 66 µM (inactive).

Which EC50 (cells [1]) does the source give for `COC(=O)CCCC1=CC2=CC(=O)C(C)(OC(=O)c3cccs3)C(=O)C2=CN1Cc1ccc2c(c1)OCO2` (configuration not stated) here?
Its EC50 is > 350 µM (not active).

And the EC50 (cells [2])?
The EC50 was > 350 µM (not active).

What does the source list for `COC(=O)c1c(C)[nH]c(O)c1/C=N/c1ccc(Oc2ccccc2)cc1`?
IC50 (H9c2): > 79 µM (inactive); EC50 [9]: > 53 µM (inactive)

Which results are given for `Cc1c(Cl)c([N+](=O)[O-])nn1CC(=O)NC12CC3CC(CC(C3)C1)C2`?
EC50 (cells [1]): > 350 µM (not active); EC50 (cells [2]): > 350 µM (not active)

Which AC50 [3] does the source give for `CC1CCc2sc(-c3nnc(S)o3)cc2C1` (configuration not stated) here?
The AC50 was 1.2 µM (active).

For `Cn1c(N)c(N2CCN(c3ccccc3)CC2)c(=O)[nH]c1=O`, which AC50 [3] is on record?
The AC50 was 3.9 µM (active).

Which GI50 (P388/ADR) does the source give for `CC(C)CC1NC(=O)C(NC(=O)c2ncccc2O)C(C)OC(=O)C(c2ccccc2)N(C)C(=O)C(C)NC(=O)C(C(C)C(C)C)N(C)C(=O)CN(C)C(=O)C2CC(O)CN2C1=O` (configuration not stated) ({Picolinoyl(3-OH)}-TL[Hyp][Sar][X56]A[NMePhg]; ester 1-C; configuration not given here) here?
The GI50 was > 109 µM (inactive).

What about the GI50 (SN12K1) of the same compound?
The GI50 was 51.3 µM (inactive).

What about the GI50 (P388) of the same compound?
The GI50 was 6.21 µM (inactive).

With `COc1ccc(Cc2nnc(N/N=C/c3ccc(O)cc3O)nc2O)cc1OC` as the compound, how does the AC50 [10] read?
Its AC50 is 8.28 µM (active).

And the IC50 (Nonstructural protein 1)?
Its IC50 is 1.78 µM (active).

Which IC50 [7] does the source give for `Cc1ccc(OC(=O)COc2ccccc2C)c(-n2nc3ccccc3n2)c1` here?
Its IC50 is > 66 µM (inactive).

What about the IC50 [8] of the same compound?
The IC50 was > 66 µM (inactive).

Which EC50 [11] does the source give for `O=C(NCCCc1ccccc1)Nc1cccc(Cl)c1` here?
Its EC50 is > 150 µM (inactive).

What about the EC50 [12] of the same compound?
The EC50 was > 38 µM (not active).

And the EC50 [13]?
The EC50 was 43.5 µM (active).

Which results are given for `COc1ccc(C(C(=O)NCc2ccccc2)N(Cc2cccs2)C(=O)c2cnccn2)cc1` (configuration not stated)?
IC50 (H9c2): > 79 µM (inactive); AC50 (Cytochrome P450 2D6): 31.6 µM (inconclusive)

For `CCOC(=O)c1cccc(NS(=O)(=O)c2c(C(=O)N3CCCCCC3)c(C)n(C)c2C)c1`, which IC50 [4] is on record?
The IC50 was > 20 µM (inactive).

With `CCCSCC(P(=O)(O)O)P(=O)(O)O.NC1CCCCC1` as the compound, how does the GI50 (P388/ADR) read?
Its GI50 is > 100 µM (inactive).

What about the GI50 (SN12K1) of the same compound?
The GI50 was > 100 µM (inactive).

And the GI50 (P388)?
Its GI50 is > 100 µM (inactive).

Which GI50 (P388/ADR) does the source give for `CCCCC#CS(=O)(=O)C(F)(F)F` here?
The GI50 was 27.7 µM (inactive).

What about the GI50 (SN12K1) of the same compound?
Its GI50 is 51.9 µM (inactive).

And the GI50 (P388)?
Its GI50 is 19.7 µM (inactive).

With `Cc1cc(Cl)n2nc(C)c(-c3ccc(Cl)cc3)c2n1` as the compound, how does the EC50 [11] read?
The EC50 was > 150 µM (inactive).

What about the CC50 [14] of the same compound?
The CC50 was 27.6 µM (active).

What about the EC50 [12] of the same compound?
The EC50 was > 38 µM (not active).

Which IC50 (Nonstructural protein 1) does the source give for `COc1cc(OC)c2c(-c3ccccc3)cc(=O)oc2c1C(CCN1CCCC(C)C1)c1ccc(N(C)C)cc1` (configuration not stated) here?
The IC50 was 11.4 µM (active).

For `CCOC(=O)C(CC(C)C)NC(=O)C(Cc1ccc(N(CCCl)CCCl)cc1)NC(C)=O` (configuration not stated), which GI50 (P388/ADR) is on record?
Its GI50 is 1.91 µM (inactive).

What about the GI50 (SN12K1) of the same compound?
Its GI50 is 2.2 µM (inactive).

And the GI50 (P388)?
Its GI50 is 1.93 µM (inactive).

Which GI50 (P388/ADR) does the source give for `COC1/C=C\C=C(/C)C(=O)NC2=CC(=O)C=C(C2=O)C(OC)C(C)CC(OC)C(OC)C(C)/C=C(/C)C1OC(N)=O` (configuration not stated) here?
The GI50 was 1.29 µM (inactive).

What about the GI50 (SN12K1) of the same compound?
Its GI50 is 1.69 µM (inactive).

What about the GI50 (P388) of the same compound?
Its GI50 is 0.0166 µM (active).

What does the source list for `COc1ccc(NC(=O)CCS(=O)(=O)c2ccc3nc(C)sc3c2)cc1OC`?
EC50 [5]: > 112 µM (not active); EC50 [6]: > 112 µM (not active)
